Results taken from patent publication US20220162191A1, “SMALL MOLECULE MODULATORS OF IL-17” (LEO PHARMA A/S, priority 2019, published 2022).

What follows are molecules tested against T1, human IL-17AA (Homo sapiens, UniProt Q16552) (assay: IL-8 release assay in human epithelial keratinocytes adult (HEKa)). Settings: 3 ng/ml human IL-17AA + 10 ng/ml human TNFalpha, 68-72 h, IL-8 by HTRF, read-out: Rel EC50 L-8 release assay.
T1 construct: host or cells: HEK (human embryonic kidney) cells
T1 sequence (Q16552 24-155) 1: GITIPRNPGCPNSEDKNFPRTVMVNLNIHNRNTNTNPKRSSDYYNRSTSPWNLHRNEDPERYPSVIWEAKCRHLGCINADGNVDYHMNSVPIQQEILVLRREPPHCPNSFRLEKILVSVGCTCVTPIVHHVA
T1 sequence (Q16552 24-155) 2: T1 sequence (Q16552 24-155) 1
Type: cell-based
Procedure, shortened: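 Adult human keratinocytes in Epilife with HKGS minus hydrocortisone, treated with compound then stimulated with final 3 ng/ml HEK-derived human IL-17AA plus 10 ng/ml TNF-alpha for 68–72 h at 37 °C; TNF-alpha alone defines 100% inhibition. Secreted IL-8 by HTRF; relative IC50 and Emax from four-parameter fits.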

EC50 | SMILES
< 100 nM | Cc1n[nH]c(C)c1-c1ccc(NC(=O)[C@H](Cc2cc(-c3ccnc(N4CC[S+]([O-])CC4)n3)ccc2Cl)NC(=O)C2(F)CC2)cc1 [Example 315, N-[(1S)-1-[[2-chloro-5-[2-(1-oxidothiomorpholin-1-ium-4-yl)pyrimidin-4-yl]phenyl]methyl]-2-[4-(3,5-dimethyl-1H-pyrazol-4-yl)anilino]-2-oxo-ethyl]-1-fluoro-cyclopropanecarboxamide]
100 to 1000 nM | Cc1cnn(C)c1-c1ccc(NC(=O)[C@H](Cc2cc(-c3ccc(=O)n(C(C)C)c3)ccc2Cl)NC(=O)c2ccno2)cc1 [Example 324, N-[(1S)-1-[[2-chloro-5-(1-isopropyl-6-oxo-3-pyridyl)phenyl]methyl]-2-[4-(2,4-dimethylpyrazol-3-yl)anilino]-2-oxo-ethyl]isoxazole-5-carboxamide]
100 to 1000 nM | Cc1n[nH]c(C)c1-c1ccc(NC(=O)[C@H](Cc2cc(-c3ccnn3C3CCC3)ccc2Cl)NC(=O)C2(F)CC2)cc1 [Example 226, N-[(1S)-1-[[2-chloro-5-(2-cyclobutylpyrazol-3-yl)phenyl]methyl]-2-[4-(3,5-dimethyl-1H-pyrazol-4-yl)anilino]-2-oxo-ethyl]-1-fluoro-cyclopropanecarboxamide]
< 100 nM | Cc1n[nH]c(C)c1-c1ccc(NC(=O)[C@@H](NC(=O)c2ccnn2C)[C@@H]2CCc3ccc(-c4ccnc(C(C)C)c4)cc32)cc1 [Example 14, N-[(1S)-2-[4-(3,5-dimethyl-1H-pyrazol-4-yl)anilino]-1-[(1R)-6-(2-isopropyl-4-pyridyl)indan-1-yl]-2-oxo-ethyl]-2-methyl-pyrazole-3-carboxamide]
< 100 nM | Cc1nocc1C(=O)NC(Cc1cc(-c2ccc(=O)n(C(C)C)c2)ccc1Cl)C(=O)Nc1ccc(-c2cncn2C)c(Cl)c1 (centres unmarked) [Example 103, N-[1-[[2-chloro-5-(1-isopropyl-6-oxo-3-pyridyl)phenyl]methyl]-2-[3-chloro-4-(3-methylimidazol-4-yl)anilino]-2-oxo-ethyl]-3-methyl-isoxazole-4-carboxamide]
< 100 nM | Cc1ncn(C)c1-c1ccc(NC(=O)[C@H](Cc2cc(-c3cccc(C(C)(C)O)c3)ccc2Cl)NC(=O)c2ccnn2C)cc1 [Example 181, N-[(1S)-[[2-chloro-5-[3-(1-hydroxy-1-methyl-ethyl)phenyl]phenyl]methyl]-2-[4-(3,5-dimethylimidazol-4-yl)anilino]-2-oxo-ethyl]-2-methyl-pyrazole-3-carboxamide]
100 to 1000 nM | Cc1nccn1-c1ccc(NC(=O)[C@H](Cc2cc(-c3ccnc(C(O)C4CC4)c3)ccc2Cl)NC(=O)C2(F)CC2)cc1 (stereo partly drawn) [Example 126, N-[(1S)-1-[[2-chloro-5-[2-[cyclopropyl(hydroxy)methyl]-4-pyridyl]phenyl]methyl]-2-[4-(2-methylimidazol-1-yl)anilino]-2-oxo-ethyl]-1-fluoro-cyclopropanecarboxamide]
100 to 1000 nM | Cc1n[nH]c(C)c1-c1ccc(NC(=O)[C@@H](NC(=O)C2(F)CC2)[C@@H]2CCc3ccc(-c4cc(C5CC5)cnn4)cc32)cc1 [Example 384, N-[(1S)-1-[(1R)-6-(5-cyclopropylpyridazin-3-yl)indan-1-yl]-2-[4-(3,5-dimethyl-1H-pyrazol-4-yl)anilino]-2-oxo-ethyl]-1-fluoro-cyclopropanecarboxamide]
> 1000 nM | COCOc1ccc(-c2ccc(Cl)c(CC(NC(=O)c3ccnn3C)C(=O)Nc3ccc(-c4nncn4C)cc3)c2)cc1C(=O)N(C)C (centres unmarked) [Example 155, N-[1-[[2-chloro-5-[3-(dimethylcarbamoyl)-4-(methoxymethoxy)phenyl]phenyl]methyl]-2-[4-(4-methyl-1,2,4-triazol-3-yl)anilino]-2-oxo-ethyl]-2-methyl-pyrazole-3-carboxamide]
< 100 nM | Cc1n[nH]c(C)c1-c1ccc(NC(=O)[C@@H](NC(=O)c2ccnn2C)[C@@H]2CCCc3ccc(-c4ccc(=O)n(C(C)C)c4)cc32)cc1O [Example 33, N-[(1S)-2-[4-(3,5-dimethyl-1H-pyrazol-4-yl)-3-hydroxy-anilino]-1-[(1R)-7-(1-isopropyl-6-oxo-3-pyridyl)tetralin-1-yl]-2-oxo-ethyl]-2-methyl-pyrazole-3-carboxamide]
100 to 1000 nM | Cc1n[nH]c(C)c1-c1ccc(NC(=O)[C@@H](NC(=O)C2(F)CC2)[C@@H]2CCc3ccc(-c4cc(N5C[C@@H]6C[C@H]5CO6)ncn4)cc32)cc1 [Example 356, N-[(1S)-2-[4-(3,5-dimethyl-1H-pyrazol-4-yl)anilino]-1-[(1R)-6-[6-[(1S,4S)-2-oxa-5-azabicyclo[2.2.1]heptan-5-yl]pyrimidin-4-yl]indan-1-yl]-2-oxo-ethyl]-1-fluoro-cyclopropanecarboxamide]
< 100 nM | CN(CC1CC1)c1cc(-c2ccc(Cl)c(CC(NC(=O)c3ccnn3C)C(=O)Nc3ccc(-c4cncn4C)cc3)c2)ccn1 (centres unmarked) [Example 153, N-[1-[[2-chloro-5-[2-[cyclopropylmethyl(methyl)amino]-4-pyridyl]phenyl]methyl]-2-[4-(3-methylimidazol-4-yl)anilino]-2-oxo-ethyl]-2-methyl-pyrazole-3-carboxamide]
< 100 nM | Cc1n[nH]c(C)c1-c1ccc(NC(=O)[C@H](Cc2cc(-c3cccc(C(C)(C)O)c3)ccc2Cl)NC(=O)c2ccnn2C)cc1 [Example 58, N-[(1S)-1-[[2-chloro-5-[3-(1-hydroxy-1-methyl-ethyl)phenyl]phenyl]methyl]-2-[4-(3,5-dimethyl-1H-pyrazol-4-yl)anilino]-2-oxo-ethyl]-2-methyl-pyrazole-3-carboxamide]
< 100 nM | Cc1n[nH]c(C)c1-c1ccc(NC(=O)[C@@H](NC(=O)C2(F)CC2)[C@@H]2CCc3ccc(-c4cncc(N5C[C@@H]6C[C@H]5CO6)c4)cc32)cc1 [Example 377, N-[(1S)-2-[4-(3,5-dimethyl-1H-pyrazol-4-yl)anilino]-1-[(1R)-6-[5-[(1S,4S)-2-oxa-5-azabicyclo[2.2.1]heptan-5-yl]-3-pyridyl]indan-1-yl]-2-oxo-ethyl]-1-fluoro-cyclopropanecarboxamide]
< 100 nM | Cc1n[nH]c(C)c1-c1ccc(NC(=O)C(Cc2cc(-c3ccc(=O)n(C(C)C)c3)ccc2Cl)NC(=O)c2ccnn2C)cc1 (centres unmarked) [Example 94, N-[1-[[2-chloro-5-(1-isopropyl-6-oxo-3-pyridyl)phenyl]methyl]-2-[4-(3,5-dimethyl-1H-pyrazol-4-yl)anilino]-2-oxo-ethyl]-2-methyl-pyrazole-3-carboxamide]
100 to 1000 nM | Cc1nocc1C(=O)NC(Cc1cc(-c2ccc(=O)n(C(C)C)c2)ccc1Cl)C(=O)Nc1ccc(-c2ccnn2C)c(Cl)c1 (centres unmarked) [Example 102, N-[1-[[2-chloro-5-(1-isopropyl-6-oxo-3-pyridyl)phenyl]methyl]-2-[3-chloro-4-(2-methylpyrazol-3-yl)anilino]-2-oxo-ethyl]-3-methyl-isoxazole-4-carboxamide]
< 100 nM | Cc1n[nH]c(C)c1-c1ccc(NC(=O)[C@@H](NC(=O)C2(F)CC2)[C@@H]2CCCc3ccc(-c4ccnc(N5CCNCC5)c4)cc32)cc1 [Example 39, N-[(1S)-2-[4-(3,5-dimethyl-1H-pyrazol-4-yl)anilino]-2-oxo-1-[(1R)-7-(2-piperazin-1-yl-4-pyridyl)tetralin-1-yl]ethyl]-1-fluoro-cyclopropanecarboxamide]
> 1000 nM | Cc1n[nH]c(C)c1-c1ccc(NC(=O)[C@H](Cc2cc(N3CCOCC3)ccc2Cl)NC(=O)c2ccnn2C)cc1 [Example 311, N-[(1S)-1-[(2-chloro-5-morpholino-phenyl)methyl]-2-[4-(3,5-dimethyl-1H-pyrazol-4-yl)anilino]-2-oxo-ethyl]-2-methyl-pyrazole-3-carboxamide]
100 to 1000 nM | Cc1n[nH]c(C)c1-c1ccc(NC(=O)[C@@H](NC(=O)c2ccnn2C)[C@@H]2CCc3ccc(-c4cnn(C(C)(C)CN)c4)cc32)cc1 [Example 22, N-[(1S)-1-[(1R)-6-[1-(2-amino-1,1-dimethyl-ethyl)pyrazol-4-yl]indan-1-yl]-2-[4-(3,5-dimethyl-1H-pyrazol-4-yl)anilino]-2-oxo-ethyl]-2-methyl-pyrazole-3-carboxamide]
< 100 nM | Cc1n[nH]c(C)c1-c1ccc(NC(=O)[C@@H](NC(=O)c2ccnn2C)[C@@H]2CCc3ccc(-c4ccc5c(c4)CCN(C)C5)cc32)cc1 [Example 15, N-[(1S)-2-[4-(3,5-dimethyl-1H-pyrazol-4-yl)anilino]-1-[(1R)-6-(2-methyl-3,4-dihydro-1H-isoquinolin-6-yl)indan-1-yl]-2-oxo-ethyl]-2-methyl-pyrazole-3-carboxamide]
< 100 nM | Cc1n[nH]c(C)c1-c1ccc(NC(=O)[C@@H](NC(=O)C2(F)CC2)[C@@H]2CCc3ccc(-c4ccnc(N5C[C@@H]6C[C@H]5CN6)c4)cc32)cc1 [Example 23, N-[(1S)-1-[(1R)-6-[2-[(1S,4S)-2,5-diazabicyclo[2.2.1]heptan-2-yl]-4-pyridyl]indan-1-yl]-2-[4-(3,5-dimethyl-1H-pyrazol-4-yl)anilino]-2-oxo-ethyl]-1-fluoro-cyclopropanecarboxamide]
< 100 nM | Cc1n[nH]c(C)c1-c1ccc(NC(=O)[C@@H](NC(=O)C2(F)CC2)[C@@H]2CCc3ccc(-c4cc(C)c(=O)n(C(C)C)c4)cc32)cc1 [Example 357, N-[(1S)-2-[4-(3,5-dimethyl-1H-pyrazol-4-yl)anilino]-1-[(1R)-6-(1-isopropyl-5-methyl-6-oxo-3-pyridyl)indan-1-yl]-2-oxo-ethyl]-1-fluoro-cyclopropanecarboxamide]
< 100 nM | Cc1n[nH]c(C)c1-c1ccc(NC(=O)[C@@H](NC(=O)C2(F)CC2)[C@@H]2CCCc3ccc(-c4ccnc(N5C[C@@H]6C[C@H]5CO6)c4)cc32)cc1 [Example 29, N-[(1S)-2-[4-(3,5-dimethyl-1H-pyrazol-4-yl)anilino]-1-[(1R)-7-[2-[(1S,4S)-2-oxa-5-azabicyclo[2.2.1]heptan-5-yl]-4-pyridyl]tetralin-1-yl]-2-oxo-ethyl]-1-fluoro-cyclopropanecarboxamide]
